In paper PMC11400633, “Peptides inhibiting the assembly of monomeric human L‐lactate dehydrogenase into catalytically active homotetramer decrease the synthesis of lactate in cultured cells” (Protein Science : A Publication of the Protein Society, 2024):
“And” between values parts separate entries of the source, which are not always exact repeats. Identical values can stand only once. Like-named read-outs stand apart in the source and are kept apart here. *1 amine or outer side, *2 acyl side, *3 side chain or, on linkers, in order; H or OH if unused. [ ]: non-standard residue; d: D form. The star is where a group is joined. d(βAsp) = O=C(O)[C@@H](CC(=O)[*:2])N[*:1]; βAsp = O=C(O)[C@H](CC(=O)[*:2])N[*:1]; OBn = c1ccc(CO*)cc1

Assays:
tetrameric LDH‐A [1] = molecular target: T1, tetrameric LDH‐A (Homo sapiens, UniProt P00338); conditions: previous observation, cited from earlier work
T1 construct: made in house; host or cells: E. coli BL21(DE3), pET9a (NdeI/BamHI)
Source text: Accordingly, monomeric LDH‐A features a rather high K m for pyruvate and, as previously mentioned, we interpret this feature as indicative of a secondary site for pyruvate, possibly engaged in the stabilization of the assembled tetramer.

tetrameric LDH‐A [2] = molecular target: T1, tetrameric LDH‐A; experiment: Steady-state kinetics of pyruvate reduction by tetrameric LDH-A; type: biochemical; conditions: variable pyruvate, 125 μM β-NADH, 2.56 nM tetramer, pH 7.5, 25°C
Protocol: (§1) To further characterize the catalytic action of monomeric LDH-A exposed to β-NADH and pyruvate, and therefore assembled into tetramer (cf. […] In addition, the kinetics of pyruvate reduction catalyzed by tetrameric LDH-A was assayed under the same conditions used for the monomeric enzyme. Structurally and functionally speaking, the availability of monomeric LDH-A does indeed provide an unprecedented and quite interesting tool to perform quantitative tests of the assembly of monomers into the corresponding catalytically active tetramer. […] In addition to this, the enzyme kinetic parameters were also determined testing reaction velocity as a function of β-NADH concentration, in the presence of 500 μM pyruvate. […] The continuous lines represent the best fit of the Michaelis-Menten equation to the experimental observations. […] The continuous lines represent the best fit of the Michaelis-Menten equation to the experimental observations. (c) Kinetic parameters determined by performing activity assays using monomeric or tetrameric LDH-A, at the indicated final concentrations. Under conditions of variable pyruvate concentration, β-NADH was always used at 125 μM. When reaction mixtures contained variable concentrations of the redox cofactor, pyruvate was invariably added at 500 μM. All the assays were performed at pH 7.5 (Tris-BisTris, 10 mM each.

monomeric human LDH‐A [3] = molecular target: T2, monomeric human LDH‐A (Homo sapiens, UniProt P00338); experiment: Steady-state kinetics of pyruvate reduction by monomeric LDH-A (assembled monomers); type: biochemical; conditions: variable pyruvate, 125 μM β-NADH, 9.80 nM monomer, pH 7.5, 25°C
T2 construct: made in house; host or cells: E. coli BL21(DE3), pET9a (NdeI/BamHI)
Protocol: as §1

monomeric human LDH‐A [4] = molecular target: T2, monomeric human LDH‐A; experiment: Inhibition by peptides of LDH-A activity gained on assembly of monomeric LDH-A into tetramer; type: biochemical; conditions: 80 μM peptide incubated 5 min with 6.2 nM monomeric LDH-A, 10 mM Tris-HCl + 10 mM BisTris pH 7.5, started with 125 μM β-NADH and 500 μM pyruvate, 25°C, A340, vs control with 1% DMSO, mean ± SD, n = 3
Protocol: In particular, all the peptides were tested at 80 μM (final concentration), and the LDH activity detected in their presence was compared with the catalytic action observed with control samples devoid of any peptide. First, we decided to assay the octameric peptide TH1, the primary structure of which ([…]) is identical to the LDH‐A region spanning residues 295–302. […] Indeed, the catalytic action exerted by 6 nM tetrameric LDH‐A (in 10 mM Tris–HCl, pH 7.5, containing 150 mM NaCl) was determined as equal to 433 ± 11 and 452 ± 19 nM/s in the absence and in the presence of 80 μM TH1 octapeptide, respectively. Overall, this insensitivity along with the significant effect elicited by TH1 on monomeric LDH‐A indicate that the octapeptide inhibits the assembly of LDH‐A monomers into the corresponding, catalytically active, tetramer. To dissect the inhibition triggered by TH1 on monomeric LDH‐A, we decided to evaluate: (i) whether or not the two halves of the octapeptide, that is, GQNG and ISDL, are equally competent in inhibiting LDH‐A; (ii) the action of linear and cyclic peptides, containing or not D amino acids; and (iii) the effect, if any, triggered by the presence of protecting groups in the peptides to be assayed. It should be noted that to allow the cyclization of tetrapeptide GQNG while maintaining a terminal carboxylic group, the sequence was modified to GQND, while for the cyclization of ISDL while maintaining a terminal amino group, the sequence was modified into KSDL (Table 1).
FIGURE 8 Inhibition exerted by linear and cyclic peptides on LDH‐A activity detected in vitro. […] The gray bars (in “a” and “d”) represent the activity observed in the presence of the same volume of DMSO (1%, v/v) carried to the assay mixtures by the peptides to be tested. (a–c) The effect, if any, of tetrameric peptides featuring the GQND primary structure (see also Table 1) on LDH‐A activity is shown. The inhibition exerted by the octameric peptide TH1 is also reported in “a.” The enzyme activity observed in the presence of linear or cyclic peptides is shown in “b” and “c”, respectively. (d) Extent of LDH‐A activity detected in the presence of linear or cyclic tetrapeptides featuring the KSDL primary structure. Error bars represent SD (n = 3). The experimental observations were compared by Student's t‐test. The ***, **, and * symbols denote p values lower than 0.001, 0.01, and […], respectively. (e) Simulation of the association between the TH2 peptide and monomeric LDH‐A. Predicted interactions between the cyclopeptide c[GQN‐isoD] (TH2) and the N‐terminal sequence Y^9[…]^19, as simulated by molecular dynamics in a box of explicit TIP3P water molecules; gray and red dotted lines represent hydrogen bonds and salt bridges, respectively.
All the assays were performed at 25°C using a Cary 300 Bio spectrophotometer.

MCF7 cells = experiment: Colorimetric assay of lactate secretion by MCF7 cells (expressing LDH-A); type: cell-based, human; conditions: for decrease of the concentration of secreted lactate: MCF7, 80 μM peptide with Lipofectamine 2000 (0.5% v/v), 1% DMSO, Krebs-Ringer buffer, 4 h, 37°C, colorimetric, n = 3, vs cells without peptide; for effect on lactate production in the absence of lipofectamine: MCF7, peptide without lipofectamine
Source text: Having identified peptides able to interfere with the assembly of monomeric LDH‐A into catalytically active tetramer, we considered of interest to test the action of peptides against LDH‐A expressed in human cell lines. In particular, we analyzed the lactate secreted by cultured human cells exposed or not to the peptides better performing as inhibitors of LDH‐A in vitro, that is, TH1, TH2, and TH16. Moreover, we used two different cell lines exclusively expressing LDH‐A or LDH‐B, that is, MCF7 and BxPC3, respectively. In MCF7 cells, the [mRNALDH‐A]/[mRNALDH‐B] ratio is indeed equal to ca. 150 (Figure 9a), whereas in BxPC3 cells the messenger coding for LDH‐A was not detected (Figure 9a). Therefore, by comparing the decrease, if any, of the lactate concentration secreted by these two cell lines the selectivity of peptides acting against LDH‐A or LDH‐B can be conveniently estimated. When the MCF7 cell line is considered, the linear TH16 and the cyclic TH2 tetrapeptide performed equally, being both responsible for a concentration of secreted lactate 20% lower than that detected in their absence (Figure 9b). […] Accordingly, it seems likely that lipofectamine is effective in assisting the penetration of the TH16 and TH2 peptides into cells, with this action of lipofectamine being much weaker when dealing with a larger molecule, that is, an octapeptide.
To evaluate the competence of peptides in inhibiting the action of LDH‐A in cultured cells, two human cell cultures were used: MCF7 and BxPC3, isolated from breast and pancreatic adenocarcinoma, respectively. Cultures were grown in DMEM (MCF7) or RPMI medium (BxPC3), supplemented with 100 U/ml penicillin/streptomycin, 2 mM glutamine and 10% (v/v) FBS. All the components of the media used for cell culture were obtained from Merck‐Millipore.
The competence of peptides in inhibiting LDH in cultured cells was tested by assessing the concentration of lactate released by MCF7 and BxPC3 cell cultures. To this aim, cells were seeded in duplicate in 24‐wells plates (2 × 10^5/well) and let to adhere overnight; the culture medium was then replaced by Krebs‐Ringer buffer (300 μl/well). Stock solutions of peptides (8 mM in DMSO) were diluted in Krebs‐Ringer buffer to a final concentration of 640 μM and mixed with an equal volume of 4% (v/v, in Krebs‐Ringer buffer) Lipofectamine 2000 (Invitrogen). The final solution was thoroughly mixed, kept for 25 min at room temperature, and finally 100 μl were added to each plate well, obtaining a final peptide concentration equal to 80 μM. The concentration of lactate released in the Krebs–Ringer buffer was determined after 4 h of incubation at 37°C, using the colorimetric assay previously reported (Rossi et al., [2023]). Each experiment was performed in triplicate and included control samples consisting of untreated cell cultures exposed to the same final concentration of DMSO (1%, v/v) and Lipofectamine (0.5%, v/v) to which were exposed the samples treated with peptides.

BxPC3 cells = experiment: Colorimetric assay of lactate secretion by BxPC3 cells (expressing LDH-B); type: cell-based, human; conditions: BxPC3, 80 μM peptide with Lipofectamine 2000 (0.5% v/v), 1% DMSO, Krebs-Ringer buffer, 4 h, 37°C, n = 3
Source text: Having identified peptides able to interfere with the assembly of monomeric LDH‐A into catalytically active tetramer, we considered of interest to test the action of peptides against LDH‐A expressed in human cell lines. In particular, we analyzed the lactate secreted by cultured human cells exposed or not to the peptides better performing as inhibitors of LDH‐A in vitro, that is, TH1, TH2, and TH16. Moreover, we used two different cell lines exclusively expressing LDH‐A or LDH‐B, that is, MCF7 and BxPC3, respectively. In MCF7 cells, the [mRNALDH‐A]/[mRNALDH‐B] ratio is indeed equal to ca. 150 (Figure 9a), whereas in BxPC3 cells the messenger coding for LDH‐A was not detected (Figure 9a). Therefore, by comparing the decrease, if any, of the lactate concentration secreted by these two cell lines the selectivity of peptides acting against LDH‐A or LDH‐B can be conveniently estimated. When the MCF7 cell line is considered, the linear TH16 and the cyclic TH2 tetrapeptide performed equally, being both responsible for a concentration of secreted lactate 20% lower than that detected in their absence (Figure 9b). […] It should indeed be noted that the assays with cells were performed in the presence of lipofectamine (see Section 5). […] Accordingly, it seems likely that lipofectamine is effective in assisting the penetration of the TH16 and TH2 peptides into cells, with this action of lipofectamine being much weaker when dealing with a larger molecule, that is, an octapeptide.
To evaluate the competence of peptides in inhibiting the action of LDH‐A in cultured cells, two human cell cultures were used: MCF7 and BxPC3, isolated from breast and pancreatic adenocarcinoma, respectively. […]
The competence of peptides in inhibiting LDH in cultured cells was tested by assessing the concentration of lactate released by MCF7 and BxPC3 cell cultures. […] The concentration of lactate released in the Krebs–Ringer buffer was determined after 4 h of incubation at 37°C, using the colorimetric assay previously reported (Rossi et al., [2023]). […]

## CC(=O)C(=O)O [pyruvate]
Tetrameric LDH‐A [1]; ref Pasti et al., 2022
  K m for pyruvate, tetrameric enzyme: 252 µM
Tetrameric LDH‐A [1]; ref Pettit et al., 1981
  K m for pyruvate, tetrameric enzyme: 398 µM
Tetrameric LDH‐A [2]
  K m for pyruvate, tetrameric LDH‐A: 271 ± 40 µM and 271 µM
Monomeric human LDH‐A [3]
  K m for pyruvate, monomeric LDH‐A (assembled monomers): 561 ± 74 µM and 560 µM

## cyclo(GQN[d(βAsp)]) (SMILES NC(=O)CC[C@@H]1NC(=O)CNC(=O)C[C@H](C(=O)O)NC(=O)[C@H](CC(N)=O)NC1=O) [TH3]
Monomeric human LDH‐A [4]
  Inhibition (%) of LDH‐A activity: 26 ± 1%

## cyclo(GQN[βAsp]) (SMILES NC(=O)CC[C@@H]1NC(=O)CNC(=O)C[C@@H](C(=O)O)NC(=O)[C@H](CC(N)=O)NC1=O) [TH2]
MCF7 cells
  decrease of the concentration of secreted lactate: 20%
  effect on lactate production in the absence of lipofectamine: negligible and not significant effects
Monomeric human LDH‐A [4]
  Inhibition (%) of LDH‐A activity: 31 ± 3%
BxPC3 cells
  effect on lactate secretion: no significant differences

## H‐Gly‐Gln‐Asn‐Asp‐OH [TH16]
MCF7 cells
  decrease of the concentration of secreted lactate: 20%
  effect on lactate production in the absence of lipofectamine: negligible and not significant effects
Monomeric human LDH‐A [4]
  Inhibition (%) of LDH‐A activity: 22 ± 2%
BxPC3 cells
  effect on lactate secretion: no significant differences

## H-KSD[dL]-OH (SMILES CC(C)C[C@@H](NC(=O)[C@H](CC(=O)O)NC(=O)[C@H](CO)NC(=O)[C@@H](N)CCCCN)C(=O)O) [TH19]
Monomeric human LDH‐A [4]
  Inhibition (%) of LDH‐A activity: 4 ± 3%

## cyclo(GQND(OBn)) (SMILES NC(=O)CC[C@@H]1NC(=O)CNC(=O)[C@H](CC(=O)OCc2ccccc2)NC(=O)[C@H](CC(N)=O)NC1=O) [TH15]
Monomeric human LDH‐A [4]
  Inhibition (%) of LDH‐A activity: 9 ± 2%

## c[isoLys‐Ser‐Asp‐D‐Leu] (sidechain bridge or staple) [TH5]
Monomeric human LDH‐A [4]
  Inhibition (%) of LDH‐A activity: 7 ± 3%

## H-GQND(OBn)-OH (SMILES NCC(=O)N[C@@H](CCC(N)=O)C(=O)N[C@@H](CC(N)=O)C(=O)N[C@@H](CC(=O)OCc1ccccc1)C(=O)O) [TH14]
Monomeric human LDH‐A [4]
  Inhibition (%) of LDH‐A activity: 15 ± 4%
